In ChEMBL document CHEMBL3217728, “Searching for innovative quinolone-like scaffolds: synthesis and biological evaluation of 2,1-benzothiazine 2,2-dioxide derivatives” (2012):
Active and inactive are the calls of the source.

Legend:
[1] = test system: Klebsiella pneumoniae; assay: Antimicrobial activity against Klebsiella pneumoniae ATCC 13833; format: functional
[2] = test system: Staphylococcus aureus; assay: Potentiation of ciprofloxacin-induced antibacterial effect against norA-deficient Staphylococcus aureus SA-K1902 at 0.78 to 100 ug/ml by isobologram based checkerboard assay; format: functional, organism-based
[3] = test system: Staphylococcus aureus; assay: Antimicrobial activity against Staphylococcus aureus ATCC 25923; format: functional
[4] = test system: Staphylococcus aureus; assay: Antimicrobial activity against norA-deficient Staphylococcus aureus SA-K1902; format: functional
[5] = test system: Pseudomonas aeruginosa; assay: Antimicrobial activity against Pseudomonas aeruginosa ATCC 27853; format: functional
[6] = test system: Staphylococcus aureus; assay: Antimicrobial activity against wild type Staphylococcus aureus ATCC 25923; format: functional
[7] = test system: Staphylococcus aureus; assay: Potentiation of ciprofloxacin-induced antibacterial effect against wild type Staphylococcus aureus ATCC 25923 at 0.78 to 100 ug/ml by isobologram based checkerboard assay; format: functional, organism-based
[8] = test system: Staphylococcus aureus; assay: Antimicrobial activity against methicillin-sensitive Staphylococcus aureus 21A; format: functional
[9] = target: T1, Quinolone resistance protein NorA (Staphylococcus aureus) (UniProt P0A0J7); assay: Inhibition of NorA efflux pump in norA-overexpressing Staphylococcus aureus SA-K2378 assessed as reduction in ciprofloxacin MIC at 50 ug/ml by isobologram based checkerboard assay
T1 sequence (whole entry): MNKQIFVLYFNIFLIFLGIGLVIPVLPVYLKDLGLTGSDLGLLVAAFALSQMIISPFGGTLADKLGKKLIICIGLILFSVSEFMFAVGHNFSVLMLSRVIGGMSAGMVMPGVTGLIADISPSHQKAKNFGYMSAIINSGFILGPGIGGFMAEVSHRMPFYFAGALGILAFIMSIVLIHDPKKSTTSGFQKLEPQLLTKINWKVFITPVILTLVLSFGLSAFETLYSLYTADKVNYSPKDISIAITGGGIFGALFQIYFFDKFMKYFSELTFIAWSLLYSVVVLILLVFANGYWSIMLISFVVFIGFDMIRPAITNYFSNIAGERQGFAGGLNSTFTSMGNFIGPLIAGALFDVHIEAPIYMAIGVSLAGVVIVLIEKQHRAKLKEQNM

[10] = test system: Escherichia coli; assay: Antimicrobial activity against Escherichia coli ATCC 25922; format: functional
[11] = test system: Staphylococcus aureus; assay: Antimicrobial activity against norA-overexpressing Staphylococcus aureus SA-K2378; format: functional
[12] = test system: Staphylococcus aureus; assay: Antimicrobial activity against ciprofloxacin, methicillin-resistant Staphylococcus aureus 25A; format: functional
[13] = test system: Enterococcus faecium; assay: Antibacterial activity against ciprofloxacin, vancomycin-resistant Enterococcus faecium 26A23; format: functional
[14] = target: T1, Quinolone resistance protein NorA (Staphylococcus aureus); assay: Inhibition of NorA efflux pump in norA-overexpressing Staphylococcus aureus SA-K2378 assessed as reduction in ciprofloxacin MIC at 0.78 to 100 ug/ml by isobologram based checkerboard assay
[15] = target: T1, Quinolone resistance protein NorA (Staphylococcus aureus); assay: Inhibition of NorA efflux pump in Staphylococcus aureus SA-1199B assessed as inhibition of EtBr efflux at 50 uM
[16] = Inhibition of DNA gyrase (unknown origin) by DNA super coiling assay
[17] = test system: Enterococcus faecium; assay: Antibacterial activity against Enterococcus faecium ATCC 19433; format: functional
[18] = test system: Enterococcus faecalis; assay: Antibacterial activity against vancomycin-resistant Enterococcus faecalis 26A36; format: functional
[19] = test system: Staphylococcus epidermidis; assay: Antibacterial activity against Staphylococcus epidermidis ATCC 14990; format: functional
[20] = test system: Proteus mirabilis; assay: Antimicrobial activity against Proteus mirabilis CCUG 26767; format: functional
[21] = target: T1, Quinolone resistance protein NorA (Staphylococcus aureus); assay: Inhibition of NorA efflux pump in norA-overexpressing Staphylococcus aureus SA-K2378 assessed as reduction in ciprofloxacin MIC at 12.5 ug/ml by isobologram based checkerboard assay

CCOC(=O)C1(C)C(=O)c2cc(N)c(N3CCN(C)CC3)cc2N(C2CC2)S1(=O)=O (stereo unspecified)
25%: inhibition [15]
> 100 µg/mL: MIC [4] | MIC [6] | MIC [11]
active: inhibition [14] Dose-dependent effect
inactive: Activity [2] | Activity [7] | inhibition [16]
4: fold change (FC) [9]
> 128 µg/mL: MIC [1] | MIC [3] | MIC [5] | MIC [8] | MIC [10] | MIC [12] | MIC [13] | MIC [17] | MIC [18] | MIC [19] | MIC [20]

Fc1ccc([C@@H]2CCNC[C@H]2COc2ccc3c(c2)OCO3)cc1 [PAROXETINE]
> 100 µg/mL: MIC [4] | MIC [6] | MIC [11]
inactive: Activity [2] | Activity [7]
active: inhibition [14]

COC(=O)[C@H]1[C@H]2C[C@@H]3c4[nH]c5cc(OC)ccc5c4CCN3C[C@H]2C[C@@H](OC(=O)c2cc(OC)c(OC)c(OC)c2)[C@@H]1OC [RESERPINE]
inactive: Activity [2] | Activity [7]
active: inhibition [14]
> 100 µg/mL: MIC [4] | MIC [6] | MIC [11]

CC1C(=O)c2cc(N)c(N3CCN(C)CC3)cc2N(C2CC2)S1(=O)=O (stereo unspecified)
> 100 µg/mL: MIC [4] | MIC [6] | MIC [11]
active: inhibition [14] Dose-dependent effect
4: fold change (FC) [21]
> 128 µg/mL: MIC [1] | MIC [3] | MIC [5] | MIC [8] | MIC [10] | MIC [12] | MIC [13] | MIC [17] | MIC [18] | MIC [19] | MIC [20]
27%: inhibition [15]
inactive: Activity [2] | Activity [7] | inhibition [16]

CN1CCN(c2cc3c(cc2N)C(=O)CS(=O)(=O)N3C2CC2)CC1
> 128 µg/mL: MIC [1] | MIC [3] | MIC [5] | MIC [8] | MIC [10] | MIC [12] | MIC [13] | MIC [17] | MIC [18] | MIC [19] | MIC [20]
7%: inhibition [15]
inactive: inhibition [16]

CCOC(=O)C1=C(O)c2cc(N)c(N3CCN(C)CC3)cc2N(C2CC2)S1(=O)=O
inactive: inhibition [16]
> 128 µg/mL: MIC [1] | MIC [3] | MIC [5] | MIC [8] | MIC [10] | MIC [12] | MIC [13] | MIC [17] | MIC [18] | MIC [19] | MIC [20]
0%: inhibition [15]

CNC(=O)C1=C(O)c2cc(N)c(N3CCN(C)CC3)cc2N(C2CC2)S1(=O)=O
inactive: inhibition [16]
> 128 µg/mL: MIC [1] | MIC [3] | MIC [5] | MIC [8] | MIC [10] | MIC [12] | MIC [13] | MIC [17] | MIC [18] | MIC [19] | MIC [20]
2%: inhibition [15]
